From patent US20230212171A1, “ALLOSTERIC EGFR INHIBITORS AND METHODS OF USE THEREOF” (Dana-Farber Cancer Institute, Inc., priority 2020, published 2023)
Structures can show the parent of a compound that is named as a salt.

What was measured:
EGFR L858R = EGFR L858R (Homo sapiens, UniProt P00533, L858R); experiment: HTRF-based EGFR biochemical assay (L858R); conditions: enzyme 0.1 nM, ATP 100 µM, 30 min preincubation
Method: (§1) EGFR biochemical activity measurements were carried out using the homogeneous time-resolved fluorescence (HTRF) assay (Cisbio). Inhibitors and DMSO normalizations were first dispensed to empty black low-volume 384-well plates (Corning) with D300 digital liquid dispenser (HP). All reactions were carried out at room temperature and solutions were added to plates with a Multidrop Combi Reagent Dispenser (ThermoFisher). The reaction mixture (10 µL final volume) contained 1 µM tyrosine kinase peptide-biotin substrate and mutant EGFR in a reaction buffer (50 mM HEPES pH 7.0, 5 mM MgCl2, 1 mM MnCl2, 0.01% BSA, 2 mM TCEP, 0.1 mM NaVO4). Enzyme concentrations were adjusted to accommodate varying kinase activities (L858R 0.1 nM, L858R/T790M 0.02 nM). Enzyme reaction solution (2× concentrations, 5 µL) was added to 384-well plates containing compounds and incubated for 30 mins. Enzyme reactions were initiated with the addition of 5 µL of ATP to a final concentration of 100 µM and reacted for 20 mins. Reactions were quenched with the addition of 10 µL of phospho-tyrosine antibody-Europium(III) cryptate (1-to-180 volume ratio) and Streptavidin-XL665 (46.7 nM) in EDTA-containing detection buffer, then incubated at room temperature for 1 hour, and read with a PHERAstar plate reader (excitation = 337 nm, emission = 620 nm and 665 nm). IC50 values were determined by inhibition curves (11-point curves from 1.0 µM to 0.130 nM or 23-point curves from 1.0 µM to 0.130 pM) in triplicate with non-linear least squares fit in GraphPad Prism 7.0d.

[1] = biological target: EGFR mutant L858R/T790M Ba/F3 cells (Homo sapiens, UniProt P00533, T790M/L858R, cells depend on it); experiment: Ba/F3 cell proliferation model (Cell Titer Glo), EGFR L858R/T790M; assay type: cell-based, murine; conditions: single agent, 72 hours; read-out: Cell IC50 BaF3 EGFR L858R/T790M
EGFR mutant L858R/T790M Ba/F3 cells, sequence (P00533 whole entry T790M/L858R): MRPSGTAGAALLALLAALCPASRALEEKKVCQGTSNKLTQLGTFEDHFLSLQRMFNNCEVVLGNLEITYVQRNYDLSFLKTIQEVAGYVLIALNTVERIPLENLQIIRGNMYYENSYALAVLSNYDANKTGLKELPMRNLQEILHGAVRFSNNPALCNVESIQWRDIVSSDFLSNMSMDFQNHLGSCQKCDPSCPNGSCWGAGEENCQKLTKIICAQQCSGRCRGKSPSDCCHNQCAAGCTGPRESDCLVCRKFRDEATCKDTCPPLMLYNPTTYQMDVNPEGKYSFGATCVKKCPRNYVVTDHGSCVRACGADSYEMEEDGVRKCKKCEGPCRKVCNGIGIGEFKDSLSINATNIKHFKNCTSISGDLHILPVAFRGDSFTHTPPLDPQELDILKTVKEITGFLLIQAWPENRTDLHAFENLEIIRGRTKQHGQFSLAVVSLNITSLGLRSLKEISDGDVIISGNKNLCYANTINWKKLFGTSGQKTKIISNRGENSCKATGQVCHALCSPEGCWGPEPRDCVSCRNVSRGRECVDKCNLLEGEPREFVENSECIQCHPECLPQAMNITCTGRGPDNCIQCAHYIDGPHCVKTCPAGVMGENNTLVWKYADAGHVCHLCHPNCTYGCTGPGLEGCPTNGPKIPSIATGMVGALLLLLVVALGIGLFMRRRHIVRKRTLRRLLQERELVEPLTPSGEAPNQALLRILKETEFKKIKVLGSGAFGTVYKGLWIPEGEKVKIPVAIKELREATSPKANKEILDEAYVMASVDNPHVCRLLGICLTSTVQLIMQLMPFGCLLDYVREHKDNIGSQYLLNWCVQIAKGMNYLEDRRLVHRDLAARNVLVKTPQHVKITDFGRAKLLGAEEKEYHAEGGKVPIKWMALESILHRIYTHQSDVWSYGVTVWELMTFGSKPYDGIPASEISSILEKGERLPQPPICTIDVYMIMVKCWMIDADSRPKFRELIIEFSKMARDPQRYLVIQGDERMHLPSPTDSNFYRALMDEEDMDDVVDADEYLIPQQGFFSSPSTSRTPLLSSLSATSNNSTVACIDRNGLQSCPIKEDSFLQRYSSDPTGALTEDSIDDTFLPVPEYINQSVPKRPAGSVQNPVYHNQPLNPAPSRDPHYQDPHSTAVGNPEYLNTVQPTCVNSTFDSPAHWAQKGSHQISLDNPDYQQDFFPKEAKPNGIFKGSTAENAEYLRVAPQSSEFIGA
Text: (§2) The EGFR mutant L858R and L858R/T790M Ba/F3 cells have been previously described (Zhou, W., et al. Nature 462, 2009, 1070-1074). All cell lines were maintained in RPMI 1640 (Cellgro; Mediatech Inc., Herndon, CA) supplemented with 10% FBS, 100 units/mL penicillin, 100 units/mL streptomycin. The EGFR I941R mutation was introduced via site directed mutagenesis using the Quick Change Site-Directed Mutagenesis kit (Stratagene; La Jolla, CA) according to the manufacturer’s instructions. All constructs were confirmed by DNA sequencing. The constructs were shuttled into the retroviral vector JP1540 using the Cre-recombination system (Agilent Technologies, Santa Clara, CA). Ba/F3 cells were then infected with retrovirus per standard protocols, as described previously (Zhou, et al, Nature 2009). Stable clones were obtained by selection in puromycin (2 µg/ml).
(§3) Growth and inhibition of growth was assessed by the Cell Titer Glo assay (Promega, Madison, WI) and was performed according to the manufacturer’s instructions. The Cell Titer Glo assay is a luminescence-based method used to determine the number of viable cells based on quantitation of the ATP present, which is directly proportional to the amount of metabolically active cells present. Ba/F3 cells of different EGFR genotypes were exposed to compounds as a single agent or in combination with 1 µg/mL cetuximab for 72 hours and the number of cells used per experiment was determined empirically as has been previously established (Zhou, et al., Nature 2009). All experimental points were set up in triplicates in 384-well plates and all experiments were repeated at least three times. […] The curves were fitted using a non-linear regression model with a sigmoidal dose response.

EGFR L858R/T790M = EGFR L858R/T790M (Homo sapiens, UniProt P00533, L858R/T790M); experiment: HTRF-based EGFR biochemical assay (L858R/T790M); conditions: enzyme 0.02 nM, ATP 100 µM, 30 min preincubation
EGFR L858R/T790M, sequence (P00533 25-1210 T790M/L858R): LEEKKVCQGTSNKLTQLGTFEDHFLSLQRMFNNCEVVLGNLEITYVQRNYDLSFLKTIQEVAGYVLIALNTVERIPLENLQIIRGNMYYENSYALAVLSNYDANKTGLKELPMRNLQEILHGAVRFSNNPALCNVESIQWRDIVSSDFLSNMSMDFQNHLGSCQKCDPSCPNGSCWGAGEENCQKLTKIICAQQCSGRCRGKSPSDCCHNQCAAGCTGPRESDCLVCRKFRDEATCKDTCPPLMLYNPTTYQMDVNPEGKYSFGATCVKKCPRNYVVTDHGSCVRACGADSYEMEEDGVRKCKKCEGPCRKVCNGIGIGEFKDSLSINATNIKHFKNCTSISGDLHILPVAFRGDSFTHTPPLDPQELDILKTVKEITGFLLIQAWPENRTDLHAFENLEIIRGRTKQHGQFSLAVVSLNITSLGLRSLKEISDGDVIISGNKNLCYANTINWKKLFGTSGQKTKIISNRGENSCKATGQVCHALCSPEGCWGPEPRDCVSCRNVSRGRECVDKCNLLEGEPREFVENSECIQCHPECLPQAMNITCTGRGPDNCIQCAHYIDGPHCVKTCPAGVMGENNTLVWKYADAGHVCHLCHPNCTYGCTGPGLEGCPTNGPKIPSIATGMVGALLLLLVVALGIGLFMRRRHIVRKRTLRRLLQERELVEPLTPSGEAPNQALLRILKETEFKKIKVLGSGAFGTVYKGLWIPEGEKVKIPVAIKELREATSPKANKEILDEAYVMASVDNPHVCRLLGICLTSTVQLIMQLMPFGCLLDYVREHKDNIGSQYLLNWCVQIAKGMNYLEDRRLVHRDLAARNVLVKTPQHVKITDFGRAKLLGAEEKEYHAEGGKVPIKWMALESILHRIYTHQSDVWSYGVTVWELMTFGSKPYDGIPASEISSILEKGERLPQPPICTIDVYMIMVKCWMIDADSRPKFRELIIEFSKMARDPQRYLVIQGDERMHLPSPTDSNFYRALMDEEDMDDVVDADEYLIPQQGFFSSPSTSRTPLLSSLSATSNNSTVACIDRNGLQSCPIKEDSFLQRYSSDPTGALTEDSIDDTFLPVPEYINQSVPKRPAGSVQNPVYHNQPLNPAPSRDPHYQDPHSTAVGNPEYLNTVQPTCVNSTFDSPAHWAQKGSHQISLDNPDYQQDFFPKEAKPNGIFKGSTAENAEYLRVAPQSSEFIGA
Method: as §1

[2] = biological target: EGFR mutant L858R Ba/F3 cells (Homo sapiens, UniProt P00533, L858R, cells depend on it); experiment: Ba/F3 cell proliferation model (Cell Titer Glo), EGFR L858R; assay type: cell-based, murine; conditions: single agent, 72 hours; read-out: Cell ICso BaF3 EGFR L858R
EGFR mutant L858R Ba/F3 cells, sequence (P00533 whole entry L858R): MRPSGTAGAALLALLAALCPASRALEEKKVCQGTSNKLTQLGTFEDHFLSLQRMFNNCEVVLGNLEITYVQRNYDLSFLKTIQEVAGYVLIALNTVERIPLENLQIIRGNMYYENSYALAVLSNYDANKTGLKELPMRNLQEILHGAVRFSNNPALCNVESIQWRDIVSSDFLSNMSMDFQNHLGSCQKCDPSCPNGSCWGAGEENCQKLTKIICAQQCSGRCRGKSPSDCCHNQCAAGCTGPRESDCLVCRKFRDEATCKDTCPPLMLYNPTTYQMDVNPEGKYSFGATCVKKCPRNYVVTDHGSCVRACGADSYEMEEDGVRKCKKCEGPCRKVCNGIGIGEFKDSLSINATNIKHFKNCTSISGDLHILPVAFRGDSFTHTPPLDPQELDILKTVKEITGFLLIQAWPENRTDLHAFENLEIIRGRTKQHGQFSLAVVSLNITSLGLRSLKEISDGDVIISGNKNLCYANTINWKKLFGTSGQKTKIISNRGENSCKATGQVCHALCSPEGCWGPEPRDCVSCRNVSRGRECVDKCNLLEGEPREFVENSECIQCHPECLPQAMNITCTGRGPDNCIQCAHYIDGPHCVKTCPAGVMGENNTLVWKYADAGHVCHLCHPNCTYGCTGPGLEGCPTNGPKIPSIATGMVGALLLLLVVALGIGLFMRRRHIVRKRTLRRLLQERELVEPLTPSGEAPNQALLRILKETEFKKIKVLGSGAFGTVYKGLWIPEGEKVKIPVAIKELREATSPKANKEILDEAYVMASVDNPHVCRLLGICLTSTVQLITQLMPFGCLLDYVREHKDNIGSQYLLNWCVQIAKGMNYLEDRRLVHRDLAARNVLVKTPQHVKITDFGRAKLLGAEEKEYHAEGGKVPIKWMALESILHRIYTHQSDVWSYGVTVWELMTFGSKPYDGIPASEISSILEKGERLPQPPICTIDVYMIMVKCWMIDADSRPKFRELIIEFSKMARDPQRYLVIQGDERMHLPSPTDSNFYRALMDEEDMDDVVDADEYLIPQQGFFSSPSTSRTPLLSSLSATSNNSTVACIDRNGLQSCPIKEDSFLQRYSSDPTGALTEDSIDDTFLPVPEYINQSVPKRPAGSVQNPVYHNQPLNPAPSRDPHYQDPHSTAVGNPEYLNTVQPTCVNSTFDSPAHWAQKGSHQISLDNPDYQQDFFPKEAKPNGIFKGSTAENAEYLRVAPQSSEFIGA
Text: as §2, §3

EGFR L858R, sequence (P00533 25-1210 L858R): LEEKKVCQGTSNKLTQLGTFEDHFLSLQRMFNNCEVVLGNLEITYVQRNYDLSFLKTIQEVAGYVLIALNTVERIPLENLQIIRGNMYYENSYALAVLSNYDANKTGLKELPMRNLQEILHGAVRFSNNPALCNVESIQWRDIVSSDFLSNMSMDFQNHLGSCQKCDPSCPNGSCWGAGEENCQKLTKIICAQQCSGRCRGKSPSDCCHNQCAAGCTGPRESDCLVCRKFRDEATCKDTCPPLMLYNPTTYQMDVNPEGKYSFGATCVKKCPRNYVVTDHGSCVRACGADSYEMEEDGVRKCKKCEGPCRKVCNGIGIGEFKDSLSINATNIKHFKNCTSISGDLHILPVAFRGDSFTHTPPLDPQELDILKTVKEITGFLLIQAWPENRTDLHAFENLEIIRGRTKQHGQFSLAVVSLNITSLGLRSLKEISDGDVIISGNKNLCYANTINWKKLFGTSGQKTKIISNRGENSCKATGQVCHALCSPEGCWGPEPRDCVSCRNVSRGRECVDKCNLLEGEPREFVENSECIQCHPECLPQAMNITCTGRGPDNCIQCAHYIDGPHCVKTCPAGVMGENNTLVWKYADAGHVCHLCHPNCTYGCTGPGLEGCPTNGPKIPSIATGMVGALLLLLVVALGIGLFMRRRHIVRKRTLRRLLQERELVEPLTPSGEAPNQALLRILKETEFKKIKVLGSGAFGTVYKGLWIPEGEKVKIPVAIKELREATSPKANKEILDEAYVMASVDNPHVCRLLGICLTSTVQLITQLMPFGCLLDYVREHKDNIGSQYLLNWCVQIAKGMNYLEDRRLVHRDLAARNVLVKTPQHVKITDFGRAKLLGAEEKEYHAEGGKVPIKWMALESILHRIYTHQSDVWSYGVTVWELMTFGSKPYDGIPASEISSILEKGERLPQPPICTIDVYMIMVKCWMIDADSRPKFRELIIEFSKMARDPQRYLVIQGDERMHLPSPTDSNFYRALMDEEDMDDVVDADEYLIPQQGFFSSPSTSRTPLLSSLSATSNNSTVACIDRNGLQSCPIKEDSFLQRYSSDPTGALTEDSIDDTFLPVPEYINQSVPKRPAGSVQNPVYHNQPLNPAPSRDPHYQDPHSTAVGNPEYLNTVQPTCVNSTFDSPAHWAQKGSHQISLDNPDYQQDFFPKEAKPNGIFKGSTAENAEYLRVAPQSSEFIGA

Row | Compound | IC50 (EGFR L858R) [µM] | GI50 [1] [µM] | IC50 (EGFR L858R/T790M) [µM] | GI50 [2] [µM]
1 | CN1CCC(c2ccc(-c3cc4c(s3)CCN(C(c3nc5ccccc5[nH]3)c3cc(F)ccc3O)C4=O)cc2)CC1 (stereo not drawn) [Compound 012, 5-[1H-Benzimidazol-2-Yl-(5-Fluoro-2-Hydroxy-Phenyl)Methyl]-2-[4-(1-Methyl-4-Piperidyl)Phenyl]-6,7-Dihydrothieno[3,2-c]Pyridin-4-One;Dihydrochloride] | 0.01 | 0.84 | 0.005 | 1.7
2 | CN1CCC(c2ccc(-c3cc4c(s3)CN(C(c3nc5ccccc5[nH]3)c3cc(F)ccc3O)C4=O)cc2)CC1 (stereo not drawn) [Compound 013, 5-[1H-Benzimidazol-2-Yl-(5-Fluoro-2-Hydroxy-Phenyl)Methyl]-2-[4-(1-Methyl-4-Piperidyl)Phenyl]-6H-Thieno[2,3-c]Pyrrol-4-One;Dihydrochloride] | 0.009 | 0.75 | 0.014 | 1.01
3 | CN1CCC(c2ccc(-c3cc4c(s3)C(=O)N(C(c3nc5ccccc5[nH]3)c3cc(F)ccc3O)C4)cc2)CC1 (stereo not drawn) [Compound 014, 5-[1H-benzimidazol-2-yl-(5-fluoro-2-hydroxy-phenyl)methyl]-2-[4-(1-methyl-4-piperidyl)phenyl]-4H-thieno[2,3-c]pyrrol-6-one;dihydrochloride] | 0.021 | 1.18 | 0.021 | 1.33

Stronger by IC50 (EGFR L858R), values ahead:

Row | IC50 (EGFR L858R) [µM] | GI50 [1] [µM] | IC50 (EGFR L858R/T790M) [µM] | GI50 [2] [µM] | Compound
4 | 0.002 | 0.24 | 0.0008 | 1.08 | CN1CCC(c2ccc(-c3cc4c(=O)n(C(c5nc6ccccc6[nH]5)c5cc(F)ccc5O)ccc4s3)cc2)CC1 (stereo not drawn) [Compound 010, 5-[1H-benzimidazol-2-yl-(5-fluoro-2-hydroxy-phenyl)methyl]-2-[4-(1-methyl-4-piperidyl)phenyl]thieno[3,2-c]pyridin-4-one;dihydrochloride]
5 | 0.006 | 0.28 | 0.002 | 0.49 | CN1CCC(c2ccc(-c3cc4c(s3)C(=O)N(C(c3nc5ccccc5[nH]3)c3cc(F)ccc3O)CC4)cc2)CC1 (stereo not drawn) [Compound 011, 6-[1H-benzimidazol-2-yl-(5-fluoro-2-hydroxy-phenyl)methyl]-2-[4-(1-methyl-4-piperidyl)phenyl]-4,5-dihydrothieno[2,3-c]pyridin-7-one;dihydrochloride]
6 | 0.006 | 0.48 | 0.008 | 0.53 | CN1CCC(c2ccc(-c3ccc4c(c3)CC(=O)N(C(c3nc5ccccc5[nH]3)c3cc(F)ccc3O)C4)cc2)CC1 (stereo not drawn) [Compound 018, 2-[1H-benzimidazol-2-yl-(5-fluoro-2-hydroxy-phenyl)methyl]-6-[4-(1-methyl-4-piperidyl)phenyl]-1,4-dihydroisoquinolin-3-one]
